Like-named read-outs stand apart in the source and are kept apart here.
Experiments:
[1] = tested on: rat molars (erupted P31, unerupted P14); assay: ICG-assisted NIR dental imaging after subcutaneous injection in rat model; type: in vivo, Sprague Dawley rats
Method: (§1) Self-breed Sprague Dawley rats, including eight postnatal day 31 (P31) and two P21 rats for erupted molars and sixteen P14 rats for unerupted molars, were utilized. To simulate the mouthwash with living rats, 10 μL ICG solution (1 mg/ml) was pipetted into the mouth of two P31 rats in vivo, and the rats were euthanized after 2 minutes. The other two P21 went through the same in vivo mouthwash procedure and euthanized after 1 minute. In addition, the mandibles were dissected from another two P31 rats directly after euthanasia, then washed with 10 μL ICG (1 mg/ml) solution ex vivo for 10 minutes. For the subcutaneous injection, every two P31 rats were euthanized at each time points 10 minutes and 24 hours, for the ICG injection on the back (5 mg/kg body weight). For the unerupted molars, two rats were sacrificed 1 minute after in vivo mouthwash, and the same for the erupted molars. To study concentration effect on imaging, 0.1, 0.5, 1, and 5 mg/kg of ICG were injected into eight P14 rats (two rats for each dosage, and euthanized for each concentration 4 hours after injection). For P14 rats to study imaging windows, two rats were euthanized at 10 minutes, 4 hours and 48 hours for posting ICG injection (5 mg/kg) respectively.
The imaging system is depicted in FIG. 1(A). A 785 nm laser source shined to the mandibles with fiber and filters, a NIR camera received the videos, and videos were recorded by computer. The mandibles were then extracted and imaged using ICG-assisted endoscopic NIR dental imaging, as described in previous publications.^29-31 In the endoscopic imaging, an output fiber was connected to the endoscope with a camera.^30 All experiments were approved by the Institutional Animal Care and Use Committee (IACUC) of Louisiana State University (Protocol #16-117) and followed the ethical guidelines of animal care.
Meanwhile, endoscopic imaging provided clearer morphologies of the first and second molars than wide-field imaging. The lingual and occlusal cusps of the molars could be easily distinguished, especially for the mouthwash treatment (FIG. 1(B)). As described in previous work,^29, 30 the intensity-mean difference Dmean_diff (IMD) was used as the image contrast for the quantitative evaluation of the target and background. To further reveal the efficiency of the mouthwash and local injection, a sampling line (yellow lines in FIG. 1) covering both molar regions and the surrounding tissues was used to calculate the image contrast of the molar and surrounding tissues.

rat molars = assay: ICG-assisted NIR dental imaging with in vivo mouthwash in living rats; design: species or system Sprague Dawley rats; conditions: rat model
Method: as §1, with “To study concentration effect on imaging, 0.1, 0.5, 1, and 5 mg/kg of ICG were injected into eight P14 rats (two rats for each dosage, and euthanized for each concentration 4 hours after injection). For P14 rats to study imaging windows, two rats were euthanized at 10 minutes, 4 hours and 48 hours for posting ICG injection (5 mg/kg) respectively.” left out
The imaging system is depicted in FIG. 1(A). A 785 nm laser source shined to the mandibles with fiber and filters, a NIR camera received the videos, and videos were recorded by computer. […]
Meanwhile, endoscopic imaging provided clearer morphologies of the first and second molars than wide-field imaging. […] As described in previous work,^29, 30 the intensity-mean difference Dmean_diff (IMD) was used as the image contrast for the quantitative evaluation of the target and background. […]

[2] = tested on: rat molars (erupted P31, unerupted P14); conditions: rat model, previous work, cited from earlier work

## CC1(C)C(/C=C/C=C/C=C/C=C2\N(CCCCS(=O)(=O)O)c3ccc4ccccc4c3C2(C)C)=[N+](CCCCS(=O)(=O)[O-])c2ccc3ccccc3c21 [ICG, indocyanine green]
[1]; erupted molars (P31 rat), 24 hours after ICG injection
  visibility of dental structures: no dental structures could be observed
[1]; erupted molars (P31 rat), subcutaneous injection, imaging window 10 minutes
  visibility of dental structures: clearly observable
[1]; subcutaneous injection, P14 rats (FIG. 9)
  minimal dye dosage to achieve recognizable anatomical imaging: 0.1 mg/kg (body weight)
[1]; unerupted molars (P14 rats), imaging window 48 hours
  visibility of dental structures: could still be observed
Rat molars
  time to achieve the same image contrast: 1 to 2 min
[2]; erupted molars
  imaging window: 4 h
[2]; unerupted molar
  imaging window: about 96 hours

— US12324568B2, “Mouthwash to deliver dyes for dental imaging” (BOARD OF SUPERVISORS OF LOUISIANA STATE UNIVERSITY AND …, priority 2020, dated 2025)
